Experimental data published in US20060223831A1, “Bromide and its crystal” (priority 2003, published 2006).
Values belong to the compound of their own block, whether it stands above or below them.

Key:
[1] = Evaluation of hygroscopic property (storage in humidity-adjusted desiccators); type: physicochemical; conditions: for HPLC purity change / degradation due to storage: 7 days of storage, ca. 0 to 93% R.H.; for Hygroscopic property: conclusion from storage at ca. 0 to 93% R.H.
Description: About 0.5 g of each of the α- form Crystals and β- form Crystals of the bromide obtained in Example 2 was put into a weighing bottle of known mass and, after precisely calculating its mass, preserved under the following storage condition at 25° C. to measure changes in the mass.
Storage condition: A desiccator adjusted to a humidity of about 0% R.H. (silica gel), 33% R.H. (saturated MgCl2.6H2O aqueous solution), 51% R.H. (saturated Ca(NO3)2 aqueous solution), 75% R.H. (saturated NaCl aqueous solution), or 93% R.H. (saturated KNO3 aqueous solution).
i) Moisture absorption (dehydrated amount): By taking out each sample after 7 days of the storage, the weight change was precisely measured and recorded to calculate amount of the absorbed moisture.
ii) Appearance verification: Appearance of the powder was verified with the naked eye and using a magnifying lens.
iii) Powder X-ray diffraction measurement: Powder X-ray diffraction patterns of samples before storage and after completion of the storage period were recorded by a powder X-ray diffraction device.
iv) HPLC purity: Detection of degraded products in the samples before storage and after completion of the storage period was carried out using HPLC to measure purity.
(HPLC conditions) Mobile phase: 0.1% trifluoroacetic acid aqueous solution/acetonitrile=9:2, column: TSKgel ODS 80TsQA, 4.6×150 mm, particle diameter 5 μm (mfd. by Tosoh), flow rate: 1 ml/min, column temperature: 40° C., detection: UV 260 nm

[2] = Stability test (40° C., 75% R.H., 3 months); type: physicochemical; conditions: for Storage stability: 3 months at 40° C. under a relative humidity of 75%
Description: Samples were stored under shade for 3 months in a constant temperature constant moisture vessel of 40° C. and 75% R.H. The purity of each sample before storage and after storage was measured using HPLC, and change of crystal form was measured by powder X-ray diffraction. In addition, as a comparative example, crystals of the chloride were stored for 3 months under the same conditions, and amount of an impurity a (a compound in which the imidazolium ring was ring-opened) was measured. [table]

[3] = Water absorption/desorption behavior (moisture equilibrium measuring device SGA-X100); type: physicochemical
Description: Water absorption/desorption behavior of the bromide (β- form Crystal) and the chloride obtained in Reference Example as a comparative compound was measured using a moisture equilibrium measuring device SGA-X100 (VTI) under conditions of temperature: 25° C., measuring range: relative humidity of from 5 to 95%, and measuring interval: 5%.

tumor = conditions: cf. page 22 of WO 01/60803; cited from earlier work
[4] = cf. page 22 of WO 01/60803; cited from earlier work
[5] = 93% R.H. storage, 25° C., 7 days
[6] = other conditions (ca. 0 to 75% R.H.), 25° C., 7 days
[7] = after storage, 3 months, 40° C., 75% R.H., under shade
[8] = all conditions (ca. 0 to 93% R.H.), 25° C., 7 days

Weight change (%) ([1]; 33% R.H., 25° C., 7 days, listed as α-form Crystals): −0.02% | HPLC purity (%) ([1]; 33% R.H., 25° C., after 7 days of storage, listed as α-form Crystals): 99.89% | Weight change (%) ([1]; 51% R.H., 25° C., 7 days, listed as α-form Crystals): −0.04% | HPLC purity (%) ([1]; 51% R.H., 25° C., after 7 days of storage, listed as α-form Crystals): 99.89% | Weight change (%) ([1]; 75% R.H., 25° C., 7 days, listed as α-form Crystals): 0.13% | HPLC purity (%) ([1]; 75% R.H., 25° C., after 7 days of storage, listed as α-form Crystals): 99.88% | Appearance verification [1, 5]: change from reddish yellow to yellow | Powder X-ray diffraction pattern after storage [1, 5]: transitioned to β- form Crystals | Weight loss [1, 5]: About 1% | Weight change (%) ([1]; 93% R.H., 25° C., 7 days, listed as α-form Crystals): −0.94% | HPLC purity (%) ([1]; 93% R.H., 25° C., after 7 days of storage, listed as α-form Crystals): 99.89% | HPLC purity change / degradation due to storage ([1]; 25° C.): the purity was not decreased | HPLC purity (%) ([1]; before storage, listed as α-form Crystals): 99.93% | Weight change (%) ([1]; ca. 0% R.H. (silica gel), 25° C., 7 days, listed as α-form Crystals): −0.10% | HPLC purity (%) ([1]; ca. 0% R.H., 25° C., after 7 days of storage, listed as α-form Crystals): 99.72% | Hygroscopic property ([1]; 25° C.): no hygroscopic property | Appearance verification [1, 6]: No changes were found | Powder X-ray diffraction pattern after storage [1, 6]: No changes were found | Storage stability ([2]; listed as α- form Crystals): stable | HPLC purity (%) [2, 7]: 99.92% | Powder X-ray diffraction pattern [2, 7]: β-form | HPLC purity (%) ([2]; before storage): 99.91% | Powder X-ray diffraction pattern ([2]; before storage): α-form
Structure (SMILES): COCCn1c2c([n+](Cc3cnccn3)c1C)C(=O)c1ccccc1C2=O.[Br-] [α-form Crystal, 1-(2-methoxyethyl)-2-methyl-4,9-dioxo-3-(pyrazin-2-ylmethyl)-4,9-dihydro-1H-naphtho[2,3-d]imidazol-3-ium bromide]
Storage stability [2]: degradation due to the storage was not observed

Weight gain on forming monohydrate ([3]; 25° C., 65% R.H. to 80% R.H.): 4.3% | Relative humidity causing deliquescence ([3]; 25° C., absorption): ≥ 85 % R.H. | Relative humidity below which hydrate returned to anhydride ([3]; 25° C., at the time of drying, hydration state stable up to 25% R.H.): < 25 % R.H. | Heating temperature returning hydrate to anhydride ([3]; slight heating): ≥ 25 °C | Storage stability [2]: low | Impurity a (%) (imidazolium ring-opened compound) [2, 7]: 2.45% | Impurity a (%) (imidazolium ring-opened compound) ([2]; before storage): 0.64%
Structure (SMILES): COCCn1c2c([n+](Cc3cnccn3)c1C)C(=O)c1ccccc1C2=O [chloride, 1-(2-methoxyethyl)-2-methyl-4,9-dioxo-3-(pyrazin-2-ylmethyl)-4,9-dihydro-1H-naphtho[2,3-d]imidazol-3-ium chloride]
in vivo tumor growth inhibitory activity (tumor): good | toxicity [4]: low

Weight change (%) ([1]; 33% R.H., 25° C., 7 days, listed as β-form Crystals): 0.02% | HPLC purity (%) ([1]; 33% R.H., 25° C., after 7 days of storage, listed as β-form Crystals): 99.73% | Weight change (%) ([1]; 51% R.H., 25° C., 7 days, listed as β-form Crystals): 0.04% | HPLC purity (%) ([1]; 51% R.H., 25° C., after 7 days of storage, listed as β-form Crystals): 99.72% | Weight change (%) ([1]; 75% R.H., 25° C., 7 days, listed as β-form Crystals): 0.06% | HPLC purity (%) ([1]; 75% R.H., 25° C., after 7 days of storage, listed as β-form Crystals): 99.71% | Weight change (%) ([1]; 93% R.H., 25° C., 7 days, listed as β-form Crystals): 0.08% | HPLC purity (%) ([1]; 93% R.H., 25° C., after 7 days of storage, listed as β-form Crystals): 99.71% | HPLC purity change / degradation due to storage ([1]; 25° C.): the purity was not decreased | Appearance verification [1, 8]: No changes were found | Powder X-ray diffraction pattern after storage [1, 8]: did not change | Weight change ([1]; all of the moisture adjustment conditions, 25° C., 7 days): Significant weight change was not found | HPLC purity (%) ([1]; before storage, listed as β-form Crystals): 99.72% | Weight change (%) ([1]; ca. 0% R.H. (silica gel), 25° C., 7 days, listed as β-form Crystals): 0.01% | HPLC purity (%) ([1]; ca. 0% R.H., 25° C., after 7 days of storage, listed as β-form Crystals): 99.73% | Hygroscopic property ([1]; 25° C.): no hygroscopic property | Hygroscopic property ([3]; 25° C., humidity range of from 5 to 95%): not found | Storage stability [2]: very stable physically and chemically | Storage stability ([2]; listed as β- form Crystals): stable | HPLC purity (%) [2, 7]: 99.71% | Powder X-ray diffraction pattern [2, 7]: β-form | HPLC purity (%) ([2]; before storage): 99.71% | Powder X-ray diffraction pattern ([2]; before storage): β-form
Structure (SMILES): COCCn1c2c([n+](Cc3cnccn3)c1C)C(=O)c1ccccc1C2=O.[Br-] [β-form Crystal, 1-(2-methoxyethyl)-2-methyl-4,9-dioxo-3-(pyrazin-2-ylmethyl)-4,9-dihydro-1H-naphtho[2,3-d]imidazol-3-ium bromide]

Hygroscopic property ([1]; 25° C.): no hygroscopic property
Structure (SMILES): COCCn1c2c([n+](Cc3cnccn3)c1C)C(=O)c1ccccc1C2=O.[Br-] [bromide, 1-(2-methoxyethyl)-2-methyl-4,9-dioxo-3-(pyrazin-2-ylmethyl)-4,9-dihydro-1H-naphtho[2,3-d]imidazol-3-ium bromide]
